Values of other authors, collected in patent US20090254175A1, “Valved stent for chronic venous insufficiency” (priority 2008, published 2009).

Row | solubility in acetic acid | solubility in alcohol | solubility in acetone and glacial acetic acid (acetone and glacial acetic acid, compared with alcohol) | solubility in water (water) | Structure (SMILES)
1 | soluble | soluble |  |  | C[C@H](CCC(=O)O)[C@H]1CC[C@H]2[C@@H]3[C@@H](O)C[C@@H]4C[C@H](O)CC[C@]4(C)[C@H]3CC[C@]12C [ursodeoxycholic acid, reference compound]
2 | soluble | soluble | to a lesser extent | sparingly soluble | C[C@H](CCC(=O)O)[C@H]1CC[C@H]2[C@@H]3CC[C@@H]4C[C@H](O)CC[C@]4(C)[C@H]3C[C@H](O)[C@]12C [Deoxycholic acid]
